Results taken from ChEMBL document CHEMBL1148173, “Three New Onnamide Congeners from the Okinawan Marine Sponge Theonella Sp” (J Nat Prod, 1993).
Values after ≈ are worked out from the molar mass of the structure shown.

Legend:
L1210 = experiment: Cytotoxicity against mouse L1210 cells; format: functional, cell-based
KB = experiment: Cytotoxicity against human KB cells; format: functional, cell-based

With C=C1C[C@](OC)([C@H](O)C(=O)N[C@H]2OCO[C@H]3[C@@H]2O[C@H](CC(=O)CCCCC/C=C/C=C/C(=O)N[C@@H](CCCNC(=N)N)C(=O)O)C(C)(C)[C@@H]3OC)O[C@H](C)[C@@H]1C [6,7-DIHYDRO-11-OXO-ONNAMIDE A] as the compound, how does the IC50 (L1210) read?
The IC50 was 16 ng/mL (≈ 20.2 nM).

What about the IC50 (KB) of the same compound?
Its IC50 is 23 ng/mL (≈ 29 nM).

Which results are given for C=C1C[C@](OC)([C@H](O)C(=O)N[C@H]2OCO[C@H]3[C@@H]2O[C@H](C[C@H](O)CCC/C=C/C=C\C=C\C(=O)N[C@@H](CCCNC(=N)N)C(=O)O)C(C)(C)[C@@H]3OC)O[C@H](C)[C@@H]1C [4Z-ONNAMIDE A]?
IC50 (L1210): 1.5 ng/mL (≈ 1.89 nM); IC50 (KB): 2.9 ng/mL (≈ 3.65 nM)

How did the IC50 (L1210) turn out when C=C1C[C@](OC)([C@H](O)C(=O)N[C@H]2OCO[C@H]3[C@@H]2O[C@H](CC(=O)CCC/C=C/C=C/C=C/C(=O)N[C@@H](CCCNC(=N)N)C(=O)O)C(C)(C)[C@@H]3OC)O[C@H](C)[C@@H]1C [11-OXO-ONNAMIDE A] was run?
Its IC50 is 9.2 ng/mL (≈ 11.6 nM).

What about the IC50 (KB) of the same compound?
Its IC50 is 13 ng/mL (≈ 16.4 nM).

C=C1C[C@](OC)([C@H](O)C(=O)N[C@H]2OCO[C@H]3[C@@H]2O[C@H](C[C@H](O)CCCCC/C=C/C=C/C(=O)N[C@@H](CCCNC(=N)N)C(=O)O)C(C)(C)[C@@H]3OC)O[C@H](C)[C@@H]1C [6,7-DIHYDRO-ONNAMIDE A] was tested. Which IC50 (L1210) did it give?
The IC50 was 4.6 ng/mL (≈ 5.78 nM).

What about the IC50 (KB) of the same compound?
The IC50 was 5 ng/mL (≈ 6.28 nM).

Which results are given for C=C1C[C@](OC)([C@H](O)C(=O)N[C@H]2OCO[C@H]3[C@@H]2O[C@H](C[C@H](O)CCC/C=C/C=C/C=C/C(=O)N[C@@H](CCCNC(=N)N)C(=O)O)C(C)(C)[C@@H]3OC)O[C@H](C)[C@@H]1C [ONNAMIDE A]?
IC50 (L1210): 2 ng/mL (≈ 2.52 nM); IC50 (KB): 3.6 ng/mL (≈ 4.53 nM)
